Experimental data as given in patent US10544138B2, “Tricyclic kinase inhibitors of MELK and methods of use” (Dana-Farber Cancer Institute, Inc., priority 2015, dated 2020).

Key:
MELK [1] = target: T1, MELK (Homo sapiens, UniProt Q14680); experiment: Electrophoretic mobility (auto-phosphorylation) of MELK in nocodazole-arrested mitotic cells, immunoblotting; assay type: cell-based; conditions: nocodazole-arrested mitotic cells (HeLa, MDA-MB-231), 30 min, increasing concentration
Protocol: […] assays were performed with recombinant protein of the indicated mitotic kinase (left) and AMPK family kinases (right) in the presence of THZ-4-63-1. […] Cells were treated with nocodazole (100 ng/ml) for 18 h or not treated (Asyn., asynchronous). Nocodazole-arrested mitotic cells (M) were isolated via shake-off. The attached cells enriched in G2 phase (G2) were harvested. A portion of the mitotic cells were washed off nocodazole and released into G1 phase after 4 hours of incubation (G1). […] In Panel D, mitotic lysates were prepared from the indicated cells, and treated with λ-phosphatase at 30° C. In Panel E, nocodazole-arrested mitotic cells were treated with increasing concentration of THZ-4-63-1 for 30 min. Cell lysates were subjected to immunoblotting.
(§1) Cell lysates were subjected to immunoblotting. […] The fluorescent signals of immunblotting were quantified using Image Studio Lite software (Licor Biosciences, Lincoln, Neb.). The signal of phosphorylated Aurora kinases was normalized to that of loading control (α-tubulin).
(§2) We next proceeded to test if THZ-4-63-1 inhibits MELK activity in vivo. With a lack of established kinase substrates of MELK during mitosis, we used the auto-phosphorylation of MELK as a surrogate to indicate the activity of MELK. […] We then harvested nocodazole-arrested mitotic cells, and treated cells with increasing concentrations of THZ-4-63-1.

Aurora kinases = experiment: Aurora kinase phosphorylation in mitotic cells, immunoblotting; assay type: cell-based; conditions: 30 min
Protocol: as §1
Cell lysates were prepared for immunoblotting. In Panels B and C, THZ-4-63-1 inhibits H3T3 phosphorylation in HeLa (B) and U2OS (C) cells. Nocodazole arrested mitotic cells were treated with THZ-4-63-1 at the indicated doses for 30 min. […] Cell lysates were subjected to immunblotting. The signal of H3T3 phosphorylation was normalized to that of α-tubulin (right).
as §2
We exposed paclitaxel- or nocodazole-arrested mitotic cells to the individual inhibitor for 30 min in the presence of MG132, and collected lysates for examining signaling involved in chromosome alignment. […] Recent studies unravel a novel role of Aurora B in phosphorylating Haspin^7, a major factor responsible for phosphorylating Histone H3 at Thr3^14. […]

[2] = test system: Histone H3 phosphorylation at Thr3; experiment: Histone H3 Thr3 phosphorylation in arrested mitotic cells, immunoblotting; assay type: cell-based; conditions: paclitaxel- or nocodazole-arrested mitotic cells, 30 min, with MG132
Protocol: Cell lysates were prepared for immunoblotting. […] HeLa cells were treated with DMSO or THZ-4-63-1 (5 μM) for 4 h followed by 1 h treatment of MG132 (10 μM). Cells were fixed and stained with anti-H3T3ph and anti-CREST. […] Cells were treated as in FIG. 2, Panel D, and additionally treated with MG132 (10 μM) for 1 h before fixation. The histogram indicates the quantification of H3S10ph signal. […] MCF-10A cells stably expressing empty vector (EV) or MELK were fixed for immunostaining. Images were captured with identical exposure time. H3T3ph intensity was quantified by the use of ImageJ. […] Recombinant MELK protein (kinase domain) was incubated with recombinant Histone H3 for 30 min at 30° C. Samples were subjected to immunoblotting using the indicated antibodies. […] Cells stably expressing GFP-MELK were fixed by formaldehyde and stained with anti-H3S10ph. […] Asynchronized (Async.) or nocodazole-arrested mitotic cells were subjected to fractionation, with sample prepared for immunoblotting. Panels H and I are images showing that MELK inhibition impairs the localization of chromosome passenger complex (CPC), indicated by the immunofluorescence detecting Survivin (G) and Aurora B (H). In addition to the presence of doxycyclin or THZ-4-63-1, cells were treated with nocodazole (0.33 μM) and MG132 (10 μM) for 3 h before fixation.
Cell lysates were prepared for immunoblotting. […]

MELK [3] = target: T1, MELK; experiment: Z′-LYTE biochemical assay, MELK inhibition; set-up: purchased Life Technologies; conditions: 25 uM ATP concentration; read-out: MELK IC50 as determined by Z′-LYTE biochemical assay
Protocol: The invention also provides methods for inhibiting MELK, comprising contacting MELK with a compound of the invention in an amount effective to inhibit MELK. In certain embodiments, the method is conducted in vitro. In certain embodiments, the method is conducted in vivo. Inhibition of MELK can be determined by the Z′-LYTE® biochemical assay from Life Technologies (Life Technologies Z′-LYTE® Screening Protocol and Assay Conditions, June 2012, incorporated herein by reference).
Generally, IC50 against MELK was determined by Z′-LYTE® biochemical assay and are measured in nM at 25 uM ATP concentration.

MDA-MB-468 = experiment: Cell growth with paclitaxel combination in MDA-MB-468; assay type: cell-based, human; conditions: 2 nM
Protocol: Mitotic cells were treated with THZ-4-63-1 at indicated concentrations for 4 h. Cells were collected for immunoblotting. Panel B contains time-lapse images of U2OS-(H2B-GFP) cells treated with THZ-4-63-1 (5 μM). […] Panel C contains blots showing proteasome-mediated degradation of Cyclin B1, Aurora B and MELK in THZ-4-63-1-induced mitotic slippage. Mitotic cells were treated as in Panel A with THZ-4-63-1 (5 μM), or MG132 (10 μM), or both for 4 h. Panel D contains a graph showing quantification of cell proliferation in the indicated breast cancer cell lines, which were treated with vehicle control or THZ-4-63-1 for one week (Top) and also contains bright-field images acquired from control cells or cells treated with THZ-4-63-1 (111 nM) (Bottom). […] Cells were treated with indicated drugs, and harvested in ten days for quantification of cell growth. The bold curve depicts the theoretic prediction of an additive action between paclitaxel and THZ-4-63-1.
Because microtubule-targeting chemotherapy is the mainstay of treatment for many types of cancer including basal-like breast cancer, we asked if MELK inhibition could combine with drugs that impair microtubule dynamics. […]

T1 sequence (Q14680 whole entry): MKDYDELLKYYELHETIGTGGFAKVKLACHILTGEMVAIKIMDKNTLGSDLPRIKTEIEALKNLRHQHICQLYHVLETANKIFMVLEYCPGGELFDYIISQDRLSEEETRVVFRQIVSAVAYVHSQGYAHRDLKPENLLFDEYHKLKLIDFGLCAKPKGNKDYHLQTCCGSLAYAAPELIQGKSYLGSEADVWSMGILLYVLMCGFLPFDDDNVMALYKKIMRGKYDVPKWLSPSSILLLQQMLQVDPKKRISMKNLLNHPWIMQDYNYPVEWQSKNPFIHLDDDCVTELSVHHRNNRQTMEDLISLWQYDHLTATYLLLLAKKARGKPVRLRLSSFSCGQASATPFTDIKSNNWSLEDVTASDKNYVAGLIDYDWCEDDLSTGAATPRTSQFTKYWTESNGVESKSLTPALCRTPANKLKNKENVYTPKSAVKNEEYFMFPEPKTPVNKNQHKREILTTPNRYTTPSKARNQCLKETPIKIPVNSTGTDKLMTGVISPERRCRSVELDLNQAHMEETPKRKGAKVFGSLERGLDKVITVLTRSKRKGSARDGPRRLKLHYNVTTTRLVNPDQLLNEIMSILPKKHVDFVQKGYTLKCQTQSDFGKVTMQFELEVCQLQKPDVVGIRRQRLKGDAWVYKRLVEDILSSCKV

Compound	IC50 (MELK [3]) [nM]	also measured
O=C1NC(=NCc2cccs2)S/C1=C\c1ccc2ncccc2c1 [RO-3306, reference compound]		Electrophoretic mobility of mitotic MELK (MELK [1]): does not change the electrophoretic mobility of MELK
Cc1cc(Nc2cc(N3CCN(C)CC3)nc(Sc3ccc(NC(=O)C4CC4)cc3)n2)n[nH]1 [VX-680, reference compound]		Phosphorylation of Aurora kinases (Aurora kinases): efficiently suppressed the auto-phosphorylation of Aurora kinases; Histone H3 phosphorylation at Thr3 [2]: inhibition of the downstream Histone H3 phosphorylation at Thr3
CN(C)Cc1ccc(N2C(=O)NCc3cnc4ccc(-c5cc(Cl)c(O)c(Cl)c5)cc4c32)cc1 [Compound 01-144]	9.4	
O=c1ccc2cnc3ccc(-c4cccc(O)c4)cc3c2n1-c1ccc(N2CCNCC2)c(C(F)(F)F)c1 [Compound 01-092]	146	
CC(=O)O[C@H]1C(=O)[C@@]2(C)[C@H]([C@H](OC(=O)c3ccccc3)[C@]3(O)C[C@H](OC(=O)[C@H](O)[C@@H](NC(=O)c4ccccc4)c4ccccc4)C(C)=C1C3(C)C)[C@]1(OC(C)=O)CO[C@@H]1C[C@@H]2O [paclitaxel, reference compound]		Reduction of cell proliferation, paclitaxel alone (MDA-MB-468): half reduction
O=c1ccc2cnc3ccc(-c4ccc(CO)cc4)cc3c2n1-c1ccc(N2CCNCC2)c(C(F)(F)F)c1 [Compound 01-101]	119	
CC(=O)N1CCN(c2ccc(-n3c(=O)ccc4cnc5ccc(-c6cc(Cl)c(O)c(Cl)c6)cc5c43)cc2C(F)(F)F)CC1 [Compound 01-071]	294	
CN(C)CC1CCC(CN2C(=O)NCc3cnc4ccc(-c5cc(Cl)c(O)c(Cl)c5)cc4c32)CC1 (stereo not drawn) [Compound 02-020]	404	
CN1CCC(CN2C(=O)NCc3cnc4ccc(-c5cc(Cl)c(O)c(Cl)c5)cc4c32)CC1 [Compound 02-029]	386	
CN(C)C[C@H]1CC[C@H](N2C(=O)NCc3cnc4ccc(-c5cc(Cl)c(O)c(Cl)c5)cc4c32)CC1 [Compound 01-091, 9-(3,5-dichloro-4-hydroxyphenyl)-1-(trans-4-((dimethylamino)methyl)cyclohexyl)-3,4-dihydropyrimido[5,4-c]quinolin-2(1H)-one]	10.5	
CN(C)C[C@H]1CC[C@H](N2C(=O)N(C)Cc3cnc4ccc(-c5cc(Cl)c(O)c(Cl)c5)cc4c32)CC1 [Compound 02-095, 9-(3,5-dichloro-4-hydroxyphenyl)-1-(trans-4-((dimethylamino)methyl)cyclohexyl)-3-methyl-3,4-dihydropyrimido[5,4-c]quinolin-2(1H)-one]	27.1	
O=C(O)c1ccc(Nc2ncc3c(n2)-c2ccc(Cl)cc2C(c2c(F)cccc2F)=NC3)cc1 [MLN8054, reference compound]		Electrophoretic mobility of mitotic MELK (MELK [1]): does not alter the electrophoretic mobility of MELK
CN(C)C[C@H]1CC[C@H](n2c(=O)ccc3cnc4ccc(-c5cc(Cl)c(O)c(Cl)c5)cc4c32)CC1 [Compound 01-087, 9-(3,5-dichloro-4-hydroxyphenyl)-1-(trans-4-((dimethylamino)methyl)cyclohexyl)benzo-[h][1,6]naphthyridin-2(1H)-one]	9.6	
CN(C)C[C@H]1CC[C@H](n2c(=O)n(C)c3cnc4ccc(-c5cc(Cl)c(O)c(Cl)c5)cc4c32)CC1 [Compound 02-084, 8-(3,5-dichloro-4-hydroxyphenyl)-1-(trans-4-((dimethylamino)methyl)cyclohexyl)-3-methyl-1,3-dihydro-2H-imidazo[4,5-c]quinolin-2-one]	2.16	
CN(C)C[C@H]1CC[C@H](n2c(=O)[nH]c3cnc4ccc(-c5cc(Cl)c(O)c(Cl)c5)cc4c32)CC1 [Compound 02-022, 8-(3,5-dichloro-4-hydroxyphenyl)-1-(trans-4-((dimethylamino)methyl)cyclohexyl)-1,3-dihydro-2H-imidazo[4,5-c]quinolin-2-one]	1.85	
CN(C)C[C@H]1CC[C@H](N2C(=O)NCc3cnc4ccc(-c5ccc(NS(C)(=O)=O)cc5)cc4c32)CC1 [Compound 01-131]	4990	
O=C1NCc2cnc3ccc(-c4cc(Cl)c(O)c(Cl)c4)cc3c2N1c1ccc(N2CCNCC2)cc1 [Compound 01-100]	2.16	
O=c1ccc2cnc3ccc(-c4cc(Cl)c(O)c(Cl)c4)cc3c2n1-c1ccc(N2CCNCC2)c(C(F)(F)F)c1 [Compound 01-045]	7.63	
CN(C)C[C@H]1CC[C@H](N2C(=O)N(C)Cc3cnc4ccc(-c5cc(Cl)c(O)c(Cl)c5)nc4c32)CC1 [Compound 02-096]	2.8	
O=C1NCc2cnc3ccc(-c4cc(Cl)c(O)c(Cl)c4)cc3c2N1c1ccc(N2CCNCC2)c(C(F)(F)F)c1 [Compound 01-088]	5.48	
